# Laboratory results: patent US9540377B2, “2,6,7,8 substituted purines as HDM2 inhibitors” (Merck Sharp & Dohme Corp., priority 2013, dated 2017)
# Biological target: HDM2 (truncated, residues 17 to 125, containing p53 binding surface) (Homo sapiens (Human), UniProt Q00987)
# Assay: HDM2 FRET assay (inhibition of binding of FITC labeled p53-site peptide to HDM2)
# Details: Table 23
# From the text: IC50 DETERMINATIONS: Dose-response curves were plotted from the inhibition data, from 10 point serial dilutions of inhibitory compounds. Concentration of compound was plotted against em520/Cem495 ratio signal. To generate IC50 values, the dose-response curves were fitted to a standard sigmoidal curve and IC50 values were derived by nonlinear regression analysis.
# Sequence of HDM2 (truncated, residues 17 to 125, containing p53 binding surface) (Q00987 17-125): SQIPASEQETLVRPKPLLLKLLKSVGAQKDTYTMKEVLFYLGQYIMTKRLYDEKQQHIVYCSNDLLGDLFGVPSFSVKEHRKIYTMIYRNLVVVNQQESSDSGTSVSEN
row,SMILES,IC50 [nM]
1,"CC(F)(c1ccccn1)c1nc2nc(-c3n[nH]c(=O)o3)nc(-c3cccc(Cl)c3)c2n1C[C@H]1CC[C@H](C)CC1 (single isomer, unassigned) [Example 23.37, 5-{6-(3-chlorophenyl)-8-[1-fluoro-1-(pyridin-2-yl)ethyl]-7-[{trans-4-methylcyclohexyl)methyl]-7H-purin-2-yl}-1,3,4-oxadiazol-2(3H)-one]",9.65
2,"COC(C)(c1ccccc1F)c1nc2nc(-c3noc(=O)[nH]3)nc(-c3cncc(Cl)c3)c2n1C[C@H]1CC[C@H](C)CC1 (single isomer, unassigned) [Example 23.50, 3-{6-(5-chloropyridin-3-yl)-8-[1-(2-fluorophenyl)-1-methoxyethyl]-7-[(trans-4-methylcyclohexyl)methyl]-7H-purin-2-yl}-1,2,4-oxadiazol-5(4H)-one]",6.55
3,"COC(C)(c1ccccn1)c1nc2nc(-c3n[nH]c(=O)o3)nc(-c3cccc(Cl)c3)c2n1C[C@H]1CC[C@H](C)CC1 (single isomer, unassigned) [Example 23.54, 5-{6-(3-chlorophenyl)-8-(1-methoxy-1-pyridin-2-ylethyl)-7-[(trans-4-methylcyclohexyl)methyl]-7H-purin-2-yl}-1,3,4-oxadiazol-2(3H)-one]",13.6
4,"COC(C)(c1ccccn1)c1nc2nc(-c3n[nH]c(=O)o3)nc(-c3cccc(Cl)c3)c2n1C[C@H]1CC[C@H](C)CC1 (single isomer, unassigned) [Example 23.55, 5-{6-(3-chlorophenyl)-8-(1-methoxy-1-pyridin-2-ylethyl)-7-[(trans-4-methylcyclohexyl)methyl]-7H-purin-2-yl}-1,3,4-oxadiazol-2(3H)-one]",4.26
5,"CC(F)(c1c(F)cccc1F)c1nc2nc(-c3noc(=O)[nH]3)nc(-c3cncc(Cl)c3)c2n1C[C@H]1CC[C@H](C)CC1 (single isomer, unassigned) [Example 23.68, 3-{6-(5-chloropyridin-3-yl)-8-[1-(2,6-difluorophenyl)-1-fluoroethyl]-7-[(trans-4-methylcyclohexyl)methyl]-7H-purin-2-yl}-1,2,4-oxadiazol-5(4H)-one]",4.26
6,"CC(F)(c1c(F)cccc1F)c1nc2nc(-c3noc(=O)[nH]3)nc(-c3cncc(Cl)c3)c2n1C[C@H]1CC[C@H](C)CC1 (single isomer, unassigned) [Example 23.69, 3-{6-(5-chloropyridin-3-yl)-8-[1-(2,6-difluorophenyl)-1-fluoroethyl]-7-[(trans-4-methylcyclohexyl)methyl]-7H-purin-2-yl}-1,2,4-oxadiazol-5(4H)-one]",0.156
7,"COC(C)(c1cccc(Cl)c1F)c1nc2nc(-c3n[nH]c(=O)o3)nc(-c3cncc(Cl)c3)c2n1C[C@H]1CC[C@H](C)CC1 (single isomer, unassigned) [Example 23.73, 5-{8-[1-(3-chloro-2-fluorophenyl)-1-methoxyethyl]-6-(5-chloropyridin-3-yl)-7-[(trans-4-methylcyclohexyl)methyl]-7H-purin-2-yl}-1,3,4-oxadiazol-2(3H)-one]",0.623
8,"COC(C)(c1cccc(Cl)c1F)c1nc2nc(-c3n[nH]c(=O)o3)nc(-c3cncc(Cl)c3)c2n1C[C@H]1CC[C@H](C)CC1 (single isomer, unassigned) [Example 23.74, 5-{8-[1-(3-chloro-2-fluorophenyl)-1-methoxyethyl]-6-(5-chloropyridin-3-yl)-7-[(trans-4-methylcyclohexyl)methyl]-7H-purin-2-yl}-1,3,4-oxadiazol-2(3H)-one]",17.8
9,"CC(F)(c1c(F)cccc1F)c1nc2nc(-c3n[nH]c(=O)o3)nc(-c3cncc(Cl)c3)c2n1C[C@H]1CC[C@H](C)CC1 (single isomer, unassigned) [Example 23.80, 5-{6-(5-chloropyridin-3-yl)-8-[1-(2,6-difluorophenyl)-1-fluoroethyl]-7-[(trans-4-methylcyclohexyl)methyl]-7H-purin-2-yl}-1,3,4-oxadiazol-2(3H)-one]",10.7
10,"CC(F)(c1c(F)cccc1F)c1nc2nc(-c3n[nH]c(=O)o3)nc(-c3cncc(Cl)c3)c2n1C[C@H]1CC[C@H](C)CC1 (single isomer, unassigned) [Example 23.81, 5-{6-(5-chloropyridin-3-yl)-8-[1-(2,6-difluorophenyl)-1-fluoroethyl]-7-[(trans-4-methylcyclohexyl)methyl]-7H-purin-2-yl}-1,3,4-oxadiazol-2(3H)-one]",0.289
11,"CC1CCCCC1(F)c1nc2nc(-c3n[nH]c(=O)o3)nc(-c3cncc(Cl)c3)c2n1C[C@H]1CC[C@H](C)CC1 (single isomer, unassigned) [Example 23.82, 5-{6-(5-chloropyridin-3-yl)-8-(1-fluoro-2-methylcyclohexyl)-7-[(trans-4-methylcyclohexyl)methyl]-7H-purin-2-yl}-1,3,4-oxadiazol-2(3H)-one]",7.63
12,"CC1CCCCC1(F)c1nc2nc(-c3n[nH]c(=O)o3)nc(-c3cncc(Cl)c3)c2n1C[C@H]1CC[C@H](C)CC1 (single isomer, unassigned) [Example 23.83, 5-{6-(5-chloropyridin-3-yl)-8-(1-fluoro-2-methylcyclohexyl)-7-[(trans-4-methylcyclohexyl)methyl]-7H-purin-2-yl}-1,3,4-oxadiazol-2(3H)-one]",6.31
13,"CC(F)(c1ncccc1F)c1nc2nc(-c3n[nH]c(=O)o3)nc(-c3cncc(Cl)c3)c2n1C[C@H]1CC[C@H](C)CC1 (single isomer, unassigned) [Example 23.84, 5-{6-(5-chloropyridin-3-yl)-8-[1-fluoro-1-(3-fluoropyridin-2-yl)ethyl]-7-[(trans-4-methylcyclohexyl)methyl]-7H-purin-2-yl}-1,3,4-oxadiazol-2(3H)-one]",16.5
14,"CC(F)(c1ncccc1F)c1nc2nc(-c3n[nH]c(=O)o3)nc(-c3cncc(Cl)c3)c2n1C[C@H]1CC[C@H](C)CC1 (single isomer, unassigned) [Example 23.85, 5-{6-(5-chloropyridin-3-yl)-8-[1-fluoro-1-(3-fluoropyridin-2-yl)ethyl]-7-[(trans-4-methylcyclohexyl)methyl]-7H-purin-2-yl}-1,3,4-oxadiazol-2(3H)-one]",0.359
15,"COC(C)(c1ncccc1F)c1nc2nc(-c3n[nH]c(=O)o3)nc(-c3cncc(Cl)c3)c2n1C[C@H]1CC[C@H](C)CC1 (single isomer, unassigned) [Example 23.86, 5-{6-(5-chloropyridin-3-yl)-8-[1-(3-fluoropyridin-2-yl)-1-methoxyethyl]-7-[(trans-4-methylcyclohexyl)methyl]-7H-purin-2-yl}-1,3,4-oxadiazol-2(3H)-one]",0.675
16,"COC(C)(c1ncccc1F)c1nc2nc(-c3n[nH]c(=O)o3)nc(-c3cncc(Cl)c3)c2n1C[C@H]1CC[C@H](C)CC1 (single isomer, unassigned) [Example 23.87, 5-{6-(5-chloropyridin-3-yl)-8-[1-(3-fluoropyridin-2-yl)-1-methoxyethyl]-7-[(trans-4-methylcyclohexyl)methyl]-7H-purin-2-yl}-1,3,4-oxadiazol-2(3H)-one]",19.6
17,"COC(C)(c1c(F)cccc1F)c1nc2nc(-c3n[nH]c(=O)o3)nc(-c3cncc(Cl)c3)c2n1C[C@H]1CC[C@H](C)CC1 (single isomer, unassigned) [Example 23.88, 5-{6-(5-chloropyridin-3-yl)-8-[1-(2,6-difluorophenyl)-1-methoxyethyl]-7-[(trans-4-methylcyclohexyl)methyl]-7H-purin-2-yl}-1,3,4-oxadiazol-2(3H)-one]",0.598
